The experiment has as its target T1, Axl (Homo sapiens, UniProt P30530+Q14393).
T1 construct: extracellular and trans-membrane domain of Axl fused to IFN-γR1 intracellular domain; with Gas6
As to the kind of experiment: Gas6-induced hAxl/IFN-γR1 CHO reporter (pSTAT1) inhibition; sAxl-Gas6 pull-down partially inhibited. The experiment is classed as cell-based.

T1 sequence (P30530 26-472 limits assumed): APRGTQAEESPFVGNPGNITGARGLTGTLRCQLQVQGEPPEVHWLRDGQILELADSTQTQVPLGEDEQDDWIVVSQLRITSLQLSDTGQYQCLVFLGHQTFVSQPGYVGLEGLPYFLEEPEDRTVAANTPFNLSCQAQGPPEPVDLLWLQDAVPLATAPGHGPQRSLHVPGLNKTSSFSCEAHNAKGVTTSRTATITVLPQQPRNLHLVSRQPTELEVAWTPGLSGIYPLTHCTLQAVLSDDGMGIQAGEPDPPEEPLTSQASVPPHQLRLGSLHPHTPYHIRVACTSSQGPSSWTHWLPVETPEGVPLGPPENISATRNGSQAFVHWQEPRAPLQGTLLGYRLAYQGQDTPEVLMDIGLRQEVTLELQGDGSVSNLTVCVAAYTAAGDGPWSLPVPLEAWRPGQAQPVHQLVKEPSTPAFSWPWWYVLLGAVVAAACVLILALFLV
T1 sequence (Q14393 31-678): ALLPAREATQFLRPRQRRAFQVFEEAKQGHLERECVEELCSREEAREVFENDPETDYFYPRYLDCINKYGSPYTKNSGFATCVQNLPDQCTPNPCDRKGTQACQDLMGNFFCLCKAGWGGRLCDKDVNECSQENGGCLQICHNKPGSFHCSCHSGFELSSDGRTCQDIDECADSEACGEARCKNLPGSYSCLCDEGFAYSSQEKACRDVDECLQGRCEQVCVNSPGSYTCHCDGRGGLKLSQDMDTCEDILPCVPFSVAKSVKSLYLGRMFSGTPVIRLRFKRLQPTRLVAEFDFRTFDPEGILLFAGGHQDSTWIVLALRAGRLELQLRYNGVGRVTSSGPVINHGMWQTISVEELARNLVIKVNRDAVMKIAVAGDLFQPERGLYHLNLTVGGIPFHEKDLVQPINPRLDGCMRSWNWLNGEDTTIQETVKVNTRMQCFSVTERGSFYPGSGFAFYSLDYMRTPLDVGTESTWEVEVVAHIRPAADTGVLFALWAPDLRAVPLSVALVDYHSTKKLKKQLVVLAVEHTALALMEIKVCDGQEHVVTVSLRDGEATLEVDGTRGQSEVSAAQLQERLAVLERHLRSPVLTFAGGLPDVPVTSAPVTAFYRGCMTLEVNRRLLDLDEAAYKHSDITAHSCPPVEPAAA

For the compound `Cc1noc(C)c1CSc1ccccc1C(=O)N1CCN(c2cccc(C(F)(F)F)c2)CC1` [RU-302], the IC50 entry is listed as “low micromolar”.

The record behind these values is article PMC5341070, “Small molecule inhibitors block Gas6-inducible TAM activation and tumorigenicity” (Scientific Reports, 2017).
